Results reported in paper PMC11684029, “Discovery of VU6024578/BI02982816: An mGlu1 Positive Allosteric Modulator with Efficacy in Preclinical Antipsychotic and Cognition Models” (Journal of Medicinal Chemistry, 2024).

Assays:
[1] = rat IV plasma:brain level (PBL) PK; type: in vivo
[2] = target: T1, 5-HT transporter (Homo sapiens, UniProt P31645); experiment: Eurofins radioligand binding panel; conditions: antagonist radioligand
T1 construct: Eurofins
Excerpt: (§1) Table S1. Eurofins Lead Profiling Screen Data
(§2) This is a radioligand binding panel of 80 targets including GPCRs, ion channels, transporters and nuclear hormones. Biochemical assay results are presented as the percent inhibition of specific […]
(§3) Results showing an inhibition or stimulation higher than 50% are considered to represent significant effect and are highlighted

[3] = target: T2, 5-HT1B (Homo sapiens, UniProt P28222); experiment: Eurofins radioligand binding panel; conditions: antagonist radioligand
T2 construct: Eurofins
Excerpt: as §1, §2, §3

[4] = target: T3, 5-HT2A (Homo sapiens, UniProt P28223); experiment: Eurofins radioligand binding panel; conditions: antagonist radioligand
T3 construct: Eurofins
Excerpt: as §1, §2, §3

[5] = target: T4, 5-HT2C (Homo sapiens, UniProt P28335); experiment: Eurofins radioligand binding panel; conditions: antagonist radioligand
T4 construct: Eurofins
T4 sequence (P28335 33-458): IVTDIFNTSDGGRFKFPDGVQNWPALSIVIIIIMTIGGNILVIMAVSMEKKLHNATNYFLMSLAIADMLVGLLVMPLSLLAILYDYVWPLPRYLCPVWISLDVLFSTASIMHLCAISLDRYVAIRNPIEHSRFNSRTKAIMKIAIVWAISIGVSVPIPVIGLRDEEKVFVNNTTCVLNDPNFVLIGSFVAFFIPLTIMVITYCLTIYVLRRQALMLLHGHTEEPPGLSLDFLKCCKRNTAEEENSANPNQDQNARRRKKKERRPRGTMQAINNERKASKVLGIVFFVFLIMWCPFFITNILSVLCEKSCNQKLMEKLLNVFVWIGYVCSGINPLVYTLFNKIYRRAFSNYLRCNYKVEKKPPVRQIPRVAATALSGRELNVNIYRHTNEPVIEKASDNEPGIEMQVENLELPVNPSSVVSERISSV
Excerpt: as §1, §2, §3

[6] = target: T5, 5-HT3 (Homo sapiens, UniProt P46098); experiment: Eurofins radioligand binding panel; conditions: antagonist radioligand
T5 construct: Eurofins
Excerpt: as §1, §2, §3

[7] = target: T6, 5-HT6 (Homo sapiens, UniProt P50406); experiment: Eurofins radioligand binding panel; conditions: agonist radioligand
T6 construct: Eurofins
Excerpt: as §1, §2, §3

[8] = target: T7, 5-HT7 (Homo sapiens, UniProt P34969); experiment: Eurofins radioligand binding panel; conditions: agonist radioligand
T7 construct: Eurofins
Excerpt: as §1, §2, §3

[9] = target: T8, CCR1 (Homo sapiens, UniProt P32246); experiment: Eurofins radioligand binding panel; conditions: agonist radioligand
T8 construct: Eurofins (panel run as a service)
T8 sequence (P32246 whole entry): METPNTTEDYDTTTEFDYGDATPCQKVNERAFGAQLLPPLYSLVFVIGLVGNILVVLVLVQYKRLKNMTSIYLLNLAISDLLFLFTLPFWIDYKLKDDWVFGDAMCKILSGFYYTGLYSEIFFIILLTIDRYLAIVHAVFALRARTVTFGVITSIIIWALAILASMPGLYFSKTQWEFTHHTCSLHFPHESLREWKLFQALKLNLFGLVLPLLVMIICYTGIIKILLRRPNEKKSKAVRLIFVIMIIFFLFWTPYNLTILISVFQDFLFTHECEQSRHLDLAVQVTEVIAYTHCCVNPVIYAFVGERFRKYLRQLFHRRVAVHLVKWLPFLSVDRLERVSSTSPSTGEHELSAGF
Excerpt: as §1, §2, §3

[10] = target: T9, CXCR2 (IL-8B) (Homo sapiens, UniProt P25025); experiment: Eurofins radioligand binding panel; conditions: agonist radioligand
T9 construct: Eurofins (panel run as a service)
Excerpt: as §1, §2, §3

[11] = target: T10, D1 (Homo sapiens, UniProt P21728); experiment: Eurofins radioligand binding panel; conditions: antagonist radioligand
T10 construct: Eurofins (panel run as a service)
Excerpt: as §1, §2, §3

[12] = target: T11, D3 (Homo sapiens, UniProt P35462); experiment: Eurofins radioligand binding panel; conditions: antagonist radioligand
T11 construct: Eurofins (panel run as a service)
Excerpt: as §1, §2, §3

[13] = target: T12, D5 (Homo sapiens, UniProt P21918); experiment: Eurofins radioligand binding panel; conditions: antagonist radioligand
T12 construct: Eurofins (panel run as a service)
T12 sequence (P21918 whole entry): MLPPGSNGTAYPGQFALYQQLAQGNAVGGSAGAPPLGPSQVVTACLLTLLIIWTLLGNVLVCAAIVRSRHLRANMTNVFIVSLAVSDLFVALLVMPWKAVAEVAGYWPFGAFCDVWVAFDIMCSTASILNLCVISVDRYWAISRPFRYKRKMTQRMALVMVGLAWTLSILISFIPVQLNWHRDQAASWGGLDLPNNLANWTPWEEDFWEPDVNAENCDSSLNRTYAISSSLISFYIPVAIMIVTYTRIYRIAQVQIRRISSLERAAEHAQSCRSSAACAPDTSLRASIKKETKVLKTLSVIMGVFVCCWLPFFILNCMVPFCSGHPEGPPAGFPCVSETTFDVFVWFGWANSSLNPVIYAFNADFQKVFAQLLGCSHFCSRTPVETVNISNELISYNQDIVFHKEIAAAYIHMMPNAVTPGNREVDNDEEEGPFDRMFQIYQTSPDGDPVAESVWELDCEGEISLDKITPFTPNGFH
Excerpt: as §1, §2, §3

[14] = target: T13, EP2 (Homo sapiens, UniProt P43116); experiment: Eurofins radioligand binding panel; conditions: agonist radioligand
T13 construct: Eurofins
Excerpt: as §1, §2, §3

[15] = target: T14, ETA (Homo sapiens, UniProt P25101); experiment: Eurofins radioligand binding panel; conditions: agonist radioligand
T14 construct: Eurofins (panel run as a service)
Excerpt: as §1, §2, §3

[16] = target: T15, GAL1 (Homo sapiens, UniProt P47211); experiment: Eurofins radioligand binding panel; conditions: agonist radioligand
T15 construct: Eurofins (panel run as a service)
Excerpt: as §1, §2, §3

[17] = target: T16, GAL2 (Homo sapiens, UniProt O43603); experiment: Eurofins radioligand binding panel; conditions: agonist radioligand
T16 construct: Eurofins (panel run as a service)
T16 sequence (O43603 whole entry): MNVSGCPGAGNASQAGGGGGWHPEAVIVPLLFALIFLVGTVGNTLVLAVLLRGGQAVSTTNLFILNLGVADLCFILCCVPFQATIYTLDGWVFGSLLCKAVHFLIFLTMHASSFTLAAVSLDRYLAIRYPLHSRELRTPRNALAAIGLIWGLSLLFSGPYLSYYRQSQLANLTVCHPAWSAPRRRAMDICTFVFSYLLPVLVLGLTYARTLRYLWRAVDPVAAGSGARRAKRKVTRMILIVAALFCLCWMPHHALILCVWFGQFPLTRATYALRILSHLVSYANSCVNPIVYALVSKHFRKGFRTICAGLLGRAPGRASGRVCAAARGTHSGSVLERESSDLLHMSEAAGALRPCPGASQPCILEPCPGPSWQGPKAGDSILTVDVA
Excerpt: as §1, §2, §3

[18] = target: T17, GR (Homo sapiens, UniProt P04150); experiment: Eurofins radioligand binding panel; conditions: agonist radioligand
T17 construct: Eurofins
T17 sequence (P04150 whole entry): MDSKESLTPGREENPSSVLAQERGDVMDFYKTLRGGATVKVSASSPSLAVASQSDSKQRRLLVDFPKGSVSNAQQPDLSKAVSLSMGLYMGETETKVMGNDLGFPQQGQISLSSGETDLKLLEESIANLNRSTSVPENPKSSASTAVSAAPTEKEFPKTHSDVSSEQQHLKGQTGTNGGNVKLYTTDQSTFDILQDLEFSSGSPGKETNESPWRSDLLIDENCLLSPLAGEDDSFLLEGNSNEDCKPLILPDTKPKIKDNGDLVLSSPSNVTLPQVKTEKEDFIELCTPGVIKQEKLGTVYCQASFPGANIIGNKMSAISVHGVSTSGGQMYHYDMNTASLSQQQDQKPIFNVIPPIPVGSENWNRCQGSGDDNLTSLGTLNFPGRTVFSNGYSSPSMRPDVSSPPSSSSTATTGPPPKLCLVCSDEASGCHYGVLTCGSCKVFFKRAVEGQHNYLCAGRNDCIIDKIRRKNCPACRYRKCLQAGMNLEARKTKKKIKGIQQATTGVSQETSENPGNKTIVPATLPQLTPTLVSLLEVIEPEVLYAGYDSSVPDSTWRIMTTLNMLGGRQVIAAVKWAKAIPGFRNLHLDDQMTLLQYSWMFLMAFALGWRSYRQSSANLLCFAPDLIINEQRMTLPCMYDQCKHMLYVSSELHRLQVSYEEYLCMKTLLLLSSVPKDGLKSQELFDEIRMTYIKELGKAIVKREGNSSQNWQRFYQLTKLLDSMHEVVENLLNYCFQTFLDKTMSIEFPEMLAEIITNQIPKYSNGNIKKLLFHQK
Excerpt: as §1, §2, §3

[19] = target: T18, H1 (Homo sapiens, UniProt P35367); experiment: Eurofins radioligand binding panel; conditions: antagonist radioligand
T18 construct: Eurofins (panel run as a service)
Excerpt: as §1, §2, §3

[20] = target: T19, H2 (Homo sapiens, UniProt P25021); experiment: Eurofins radioligand binding panel; conditions: antagonist radioligand
T19 construct: Eurofins (panel run as a service)
T19 sequence (P25021 whole entry): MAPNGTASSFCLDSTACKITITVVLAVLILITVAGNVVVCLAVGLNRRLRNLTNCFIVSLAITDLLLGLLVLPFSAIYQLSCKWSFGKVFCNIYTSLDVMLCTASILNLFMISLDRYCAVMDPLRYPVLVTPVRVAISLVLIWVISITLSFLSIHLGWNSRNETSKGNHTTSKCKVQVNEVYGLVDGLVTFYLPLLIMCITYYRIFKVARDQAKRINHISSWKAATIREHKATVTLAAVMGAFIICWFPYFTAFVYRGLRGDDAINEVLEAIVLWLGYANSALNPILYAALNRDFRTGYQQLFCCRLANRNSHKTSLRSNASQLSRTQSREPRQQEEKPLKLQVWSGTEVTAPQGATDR
Excerpt: as §1, §2, §3

[21] = target: T20, IP (PGI2) (Homo sapiens, UniProt P43119); experiment: Eurofins radioligand binding panel; conditions: agonist radioligand
T20 construct: Eurofins
Excerpt: as §1, §2, §3

[22] = target: T21, M1 (Homo sapiens, UniProt P11229); experiment: Eurofins radioligand binding panel; conditions: antagonist radioligand
T21 construct: Eurofins
Excerpt: as §1, §2, §3

[23] = target: T22, M3 (Homo sapiens, UniProt P20309); experiment: Eurofins radioligand binding panel; conditions: antagonist radioligand
T22 construct: Eurofins
Excerpt: as §1, §2, §3

[24] = target: T23, M4 (Homo sapiens, UniProt P08173); experiment: Eurofins radioligand binding panel; conditions: antagonist radioligand
T23 construct: Eurofins
Excerpt: as §1, §2, §3

[25] = target: T24, M5 (Homo sapiens, UniProt P08912); experiment: Eurofins radioligand binding panel; conditions: antagonist radioligand
T24 construct: Eurofins
Excerpt: as §1, §2, §3

[26] = target: T25, MC4 (Homo sapiens, UniProt P32245); experiment: Eurofins radioligand binding panel; conditions: agonist radioligand
T25 construct: Eurofins
Excerpt: as §1, §2, §3

[27] = target: T26, NK1 (Homo sapiens, UniProt P25103); experiment: Eurofins radioligand binding panel; conditions: agonist radioligand
T26 construct: Eurofins
T26 sequence (P25103 whole entry): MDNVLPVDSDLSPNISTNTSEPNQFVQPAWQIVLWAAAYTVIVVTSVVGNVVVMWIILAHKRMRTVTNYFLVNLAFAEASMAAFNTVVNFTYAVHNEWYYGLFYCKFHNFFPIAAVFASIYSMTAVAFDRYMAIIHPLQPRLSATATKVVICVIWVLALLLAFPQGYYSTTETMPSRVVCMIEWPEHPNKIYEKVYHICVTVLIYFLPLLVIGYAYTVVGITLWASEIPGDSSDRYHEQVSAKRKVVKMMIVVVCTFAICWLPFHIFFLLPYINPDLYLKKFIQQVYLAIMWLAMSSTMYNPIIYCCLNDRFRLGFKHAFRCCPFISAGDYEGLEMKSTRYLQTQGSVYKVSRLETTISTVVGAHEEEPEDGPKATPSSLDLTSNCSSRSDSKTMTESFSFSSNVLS
Excerpt: as §1, §2, §3

[28] = target: T27, NK2 (Homo sapiens, UniProt P21452); experiment: Eurofins radioligand binding panel; conditions: agonist radioligand
T27 construct: Eurofins
Excerpt: as §1, §2, §3

[29] = target: T28, NK3 (Homo sapiens, UniProt P29371); experiment: Eurofins radioligand binding panel; conditions: antagonist radioligand
T28 construct: Eurofins
T28 sequence (P29371 whole entry): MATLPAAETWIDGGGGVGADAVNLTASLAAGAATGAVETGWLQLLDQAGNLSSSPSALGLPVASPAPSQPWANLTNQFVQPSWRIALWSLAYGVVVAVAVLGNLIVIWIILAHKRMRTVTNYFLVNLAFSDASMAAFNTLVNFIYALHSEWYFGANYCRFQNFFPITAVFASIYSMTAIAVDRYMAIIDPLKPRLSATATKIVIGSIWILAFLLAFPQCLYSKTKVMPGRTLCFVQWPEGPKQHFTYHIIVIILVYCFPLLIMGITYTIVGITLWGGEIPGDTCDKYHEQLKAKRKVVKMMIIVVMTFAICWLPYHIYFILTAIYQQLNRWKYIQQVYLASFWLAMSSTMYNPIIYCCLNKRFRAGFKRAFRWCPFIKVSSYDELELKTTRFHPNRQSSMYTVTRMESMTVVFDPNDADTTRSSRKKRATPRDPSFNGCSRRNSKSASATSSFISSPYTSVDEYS
Excerpt: as §1, §2, §3

[30] = target: T29, NOP (ORL1) (Homo sapiens, UniProt P41146); experiment: Eurofins radioligand binding panel; conditions: agonist radioligand
T29 construct: Eurofins
Excerpt: as §1, §2, §3

[31] = target: T30, NTS1 (NT1) (Homo sapiens, UniProt P30989); experiment: Eurofins radioligand binding panel; conditions: agonist radioligand
T30 construct: Eurofins
Excerpt: as §1, §2, §3

[32] = test system: Na+ channel (site 2); experiment: Eurofins radioligand binding panel; conditions: antagonist radioligand
Excerpt: as §1, §2, §3

[33] = test system: P2X; experiment: Eurofins radioligand binding panel; conditions: agonist radioligand
Excerpt: as §1, §2, §3

[34] = target: T31, PPARgamma (Homo sapiens, UniProt P37231); experiment: Eurofins radioligand binding panel; conditions: agonist radioligand
T31 construct: Eurofins
Excerpt: as §1, §2, §3

[35] = target: T32, V1a (Homo sapiens, UniProt P37288); experiment: Eurofins radioligand binding panel; conditions: agonist radioligand
T32 construct: Eurofins
Excerpt: as §1, §2, §3

[36] = target: T33, VPAC1 (VIP1) (Homo sapiens, UniProt P32241); experiment: Eurofins radioligand binding panel; conditions: agonist radioligand
T33 construct: Eurofins
Excerpt: as §1, §2, §3

[37] = target: T34, Y1 (Homo sapiens, UniProt P25929); experiment: Eurofins radioligand binding panel; conditions: agonist radioligand
T34 construct: Eurofins
Excerpt: as §1, §2, §3

[38] = target: T35, Y2 (Homo sapiens, UniProt P49146); experiment: Eurofins radioligand binding panel; conditions: agonist radioligand
T35 construct: Eurofins
Excerpt: as §1, §2, §3

[39] = target: T36, delta (DOP) (Homo sapiens, UniProt P41143); experiment: Eurofins radioligand binding panel; conditions: agonist radioligand
T36 construct: Eurofins
Excerpt: as §1, §2, §3

[40] = target: T37, dopamine transporter (Homo sapiens, UniProt Q01959); experiment: Eurofins radioligand binding panel; conditions: antagonist radioligand
T37 construct: Eurofins
Excerpt: as §1, §2, §3

[41] = target: T38, kappa (KOP) (Homo sapiens, UniProt P41145); experiment: Eurofins radioligand binding panel; conditions: agonist radioligand
T38 construct: Eurofins
T38 sequence (P41145 whole entry): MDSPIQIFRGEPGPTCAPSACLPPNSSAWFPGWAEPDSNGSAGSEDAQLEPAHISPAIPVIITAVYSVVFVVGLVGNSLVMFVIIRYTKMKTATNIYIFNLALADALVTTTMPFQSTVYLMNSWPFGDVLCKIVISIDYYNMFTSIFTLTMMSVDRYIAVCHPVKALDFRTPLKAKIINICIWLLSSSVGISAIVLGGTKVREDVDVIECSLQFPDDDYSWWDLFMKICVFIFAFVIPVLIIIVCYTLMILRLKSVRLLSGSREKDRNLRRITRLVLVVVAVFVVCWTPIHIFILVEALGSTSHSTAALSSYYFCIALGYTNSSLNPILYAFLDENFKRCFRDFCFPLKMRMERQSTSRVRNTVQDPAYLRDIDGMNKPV
Excerpt: as §1, §2, §3

[42] = target: T39, mu (MOP) (Homo sapiens, UniProt P35372); experiment: Eurofins radioligand binding panel; conditions: agonist radioligand
T39 construct: Eurofins
Excerpt: as §1, §2, §3

[43] = target: T40, norepinephrine transporter (Homo sapiens, UniProt P23975); experiment: Eurofins radioligand binding panel; conditions: antagonist radioligand
T40 construct: Eurofins
T40 sequence (P23975 whole entry): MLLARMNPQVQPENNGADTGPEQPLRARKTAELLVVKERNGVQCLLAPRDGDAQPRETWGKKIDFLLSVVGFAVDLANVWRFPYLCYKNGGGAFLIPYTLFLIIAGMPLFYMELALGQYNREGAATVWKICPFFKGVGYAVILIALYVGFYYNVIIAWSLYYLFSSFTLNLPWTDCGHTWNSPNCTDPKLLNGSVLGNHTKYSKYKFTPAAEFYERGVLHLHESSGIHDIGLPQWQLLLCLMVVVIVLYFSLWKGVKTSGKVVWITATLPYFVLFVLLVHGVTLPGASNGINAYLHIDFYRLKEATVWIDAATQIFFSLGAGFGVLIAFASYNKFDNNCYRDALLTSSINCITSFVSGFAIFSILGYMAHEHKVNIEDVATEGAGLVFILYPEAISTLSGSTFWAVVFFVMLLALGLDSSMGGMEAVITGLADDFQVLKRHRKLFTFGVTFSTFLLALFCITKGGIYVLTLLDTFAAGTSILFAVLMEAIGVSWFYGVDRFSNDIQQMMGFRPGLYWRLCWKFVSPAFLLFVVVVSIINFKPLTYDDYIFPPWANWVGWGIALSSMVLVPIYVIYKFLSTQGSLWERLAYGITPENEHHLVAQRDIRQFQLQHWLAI
Excerpt: as §1, §2, §3

Cn1nc(-c2ccnn2C)cc1CNC(=O)c1cc(-c2ccco2)ccc1Cl [Compound 19d, 2-Chloro-N-((1,2′-dimethyl-1H,2’H-[3,3′-bipyrazol]-5-yl)methyl)-5-(furan-2-yl)benzamide]
Kp at 15 min ([1]; Sprague-Dawley, 0.25 mg/kg/compound, rat IV PBL, brain:plasma): 0.99
Kp uu at 15 min ([1]; Sprague-Dawley, brain, 0.25 mg/kg/compound, rat IV PBL): 0.82
half-life ([1]; plasma, iv, 1 mg/kg, rat PK PBL experiment): 3.6 h
clearance ([1]; plasma, iv, 1 mg/kg, rat PK PBL experiment, read-out: CLp): 8.3 mL/min/kg
MRT ([1]; plasma, iv, 1 mg/kg, rat PK PBL experiment, read-out: MRT): 3.5 h
Vd ([1]; plasma, iv, 1 mg/kg, rat PK PBL experiment, read-out: Vss): 1.78 L/kg
inhibition at 10 µM [2]: 47%
inhibition at 10 µM [3]: 11%
inhibition at 10 µM [4]: -1%
inhibition at 10 µM [5]: 3%
inhibition at 10 µM [6]: 2%
inhibition at 10 µM [7]: -7%
inhibition at 10 µM [8]: -4%
inhibition at 10 µM [9]: -1%
inhibition at 10 µM [10]: 3%
inhibition at 10 µM [11]: 3%
inhibition at 10 µM [12]: -6%
inhibition at 10 µM [13]: -1%
inhibition at 10 µM [14]: 41%
inhibition at 10 µM [15]: -6%
inhibition at 10 µM [16]: -4%
inhibition at 10 µM [17]: -9%
inhibition at 10 µM [18]: 0%
inhibition at 10 µM [19]: 6%
inhibition at 10 µM [20]: -31%
inhibition at 10 µM [21]: -7%
inhibition at 10 µM [22]: 14%
inhibition at 10 µM [23]: 2%
inhibition at 10 µM [24]: 11%
inhibition at 10 µM [25]: 3%
inhibition at 10 µM [26]: 14%
inhibition at 10 µM [27]: 46%
inhibition at 10 µM [28]: 11%
inhibition at 10 µM [29]: -8%
inhibition at 10 µM [30]: -1%
inhibition at 10 µM [31]: -1%
% Inhibition at 10 µM [32]: 14%
% Inhibition at 10 µM [33]: -6%
inhibition at 10 µM [34]: 2%
inhibition at 10 µM [35]: 9%
inhibition at 10 µM [36]: -4%
inhibition at 10 µM [37]: -7%
inhibition at 10 µM [38]: -18%
inhibition at 10 µM [39]: 8%
inhibition at 10 µM [40]: 37%
inhibition at 10 µM [41]: 11%
inhibition at 10 µM [42]: 14%
inhibition at 10 µM [43]: 11%
